Laboratory results reported in US20050107400A1, “Use of pyrazolopyridines as therapeutic compounds” (priority 2001, published 2005).

System: HSV-1
Assay: HSV-1 replication in infected Vero 76 cells, DNA hybridization capture assay
Format: cell-based, herpes simplex virus 1
Conditions: Human alphaherpesvirus 1; HSV-1 in Vero 76 cells, MOI=0.001, 40-48 hours at 37° C.; read-out: IC50
Method: a) Tissue Culture and HSV Infection.
Vero 76 cells were maintained in MEM with Earle's salts, L-glutamine, 8% FBS (Hyclone, A-1111-L) and 100 units/mL Penicillin-100 μg/mL Streptomycin. For assay conditions, FBS was reduced to 2%. Cells are seeded into 96-well tissue culture plates at a density of 5×10^4 cells/well after being incubated for 45 min at 37° C. in the presence of HSV-1 or HSV-2 (MOI=0.001). Test compounds are added to the wells and the plates are incubated at 37° C. for 40-48 hours. Cell lysates are prepared as follows: media was removed and replaced with 150 μL/well 0.2 N NaOH with 1% Igepal CA 630 or NP-40. Plates were incubated up to 14 days at room temperature in a humidified chamber to prevent evaporation.
(b) Preparation of Detection DNA.
For the detection probe, a gel-purified, digoxigenin-labeled, […] PCR fragment of the HSV UL-15 sequence was utilized. PCR conditions included 0.5 μM primers, 180 μM dTTP, 20 μM dUTP-digoxigenin (Boehringer Mannheim 1558706), 200 μM each of dATP, dCTP, and dGTP, 1×PCR Buffer II (Perkin Elmer), 2.5 mM MgCl2, 0.025 units/μL of AmpliTaq Gold polymerase (Perkin Elmer), and 5 ng of gel-purified HSV DNA per 100 μL Extension conditions were 10 min at 95° C., followed by 30 cycles of 95° C. for 1 min, 55° C. for 30 sec, and 72° C. for 2 min. The amplification was completed with a 10-min incubation at 72° C. Primers were selected to amplify a 728 bp probe spanning a section of the HSV1 UL15 open reading frame (nucleotides 249-977). Single-stranded transcripts were purified with Promega M13 Wizard kits. The final product was mixed 1:1 with a mixture of 6 M GuSCN, 100 mM EDTA and 200 μg/mL herring sperm DNA and stored at 4° C.
(c) Preparation of Capture Plates.
The capture DNA plasmid (HSV UL13 region in pUC) was linearized by cutting with Xba I, denatured for 15 min at 95° C. and diluted immediately into Reacti-Bind DNA Coating Solution (Pierce, 17250, diluted 1:1 with TE buffer, pH 8) at 1 ng/μL. 75 μL/well were added to Corning (#3922 or 9690) white 96-well plates and incubated at room temperature for at least 4 hrs before washing twice with 300 μL/well 0.2×SSC/0.05% Tween-20 (SSC/T buffer). The plates were then incubated overnight at room temperature with 150 μL/well 0.2 N NaOH, 1% IGEPAL and 10 μg/mL herring sperm DNA.
Twenty-seven (27) μL of cell lysate was combined with 45 μL of hybridization solution (final concentration: 3M GuSCN, 50 mM EDTA, 100 μg/ml salmon sperm DNA, 5×Denhardt's solution, 0.25×APE, and 5 ng of the digoxigenin-labeled detection probe). APE is 1.5 M NH4-acetate, 0.15 M NH4H2 phosphate, and 5 mM EDTA adjusted to pH 6.0. Mineral oil (50 μL) was added to prevent evaporation. The hybridization plates were incubated at 95° C. for 10 minutes to denature the DNA, then incubated at 42° C. overnight. The wells were washed 6× with 300 μL/well SSC/T buffer then incubated with 75 μL/well anti-digoxigenin-HRP-conjugated antibody (Boehringer Mannheim 1207733, 1:5000 in TE) for 30 min at room temperature. The wells were washed 6× with 300 μL/well with PBS/0.05% Tween-20 before 75 μL/well SuperSignal LBA substrate (Pierce) was added. The plates were incubated at room temperature for 30 minutes and chemiluminescence was measured in a Wallac Victor reader.
The following results were obtained for HSV-1.

SMILES	IC50
CCCCCCCCc1cccc2c(-c3ccnc(NCCCC)n3)c(-c3ccc(F)cc3)nn12 [Example 86, N-Butyl-4-[2-(4-fluorophenyl)-7-octylpyrazolo[1,5-a]pyridin-3-yl]-2-pyrimidinamine]	6 µM
COc1nccc(-c2c(-c3ccc(F)cc3)nn3c(OCC(F)(F)F)cccc23)n1 [Example 66, 2-(4-Fluorophenyl)-3-(4-(2-methyloxy)pyrimidinyl)-7-(2,2,2-trifluoroethoxy)pyrazolo[1,5-a]pyridine]	25 µM
CSc1nccc(-c2c(-c3ccc(F)cc3)nn3c(OCC(F)(F)F)cccc23)n1 [Example 59, 2-(4-Fluorophenyl)-3-(4-(2-methylthio)pyrimidinyl)-7-(2,2,2-trifluoroethoxy)pyrazolo[1,5-a]pyridine]	10 µM
CN(C)CCCNc1nccc(-c2c(-c3ccc(F)cc3)nn3cc(C(F)(F)F)ccc23)n1 [Example 90, N^1-{4-[2-(4-Fluorophenyl)-6-trifluoromethylpyrazolo[1,5-a]pyridin-3-yl]pyrimidin-2-yl}-N^3,N^3-dimethylpropane-1,3-diamine]	1.9 µM
OCCCNc1cc(-c2c(-c3ccc(F)cc3)nn3ccccc23)c(Br)cn1 [Example 44, 3-({5-Bromo-4-[2-(4-fluorophenyl)-pyrazolo[1,5-a]pyridin-3-yl]-2-pyridinyl}amino)-1-propanol]	6.3 µM
OCCCNc1cc(-c2c(-c3ccc(F)cc3)nn3cc(C(F)(F)F)ccc23)ccn1 [Example 14, 3-(4-[2-(4-Fluorophenyl)-6-trifluoromethylpyrazolo[1,5-a]-pyridin-3-yl]-2-pyridinylamino)-1-propanol]	2 µM
NCCCNc1cc(-c2c(-c3ccc(F)cc3)nn3cc(Br)ccc23)ccn1 [Example 15, N-(3-Aminopropyl)-4-[6-bromo-2-(4-fluorophenyl)-pyrazolo[1,5-a]pyridin-3-yl]-2-pyridinamine]	4 µM
COc1ccc(CNc2cc(-c3c(-c4ccc(F)cc4)nn4ccccc34)ccn2)cc1 [Example 6, 4-[2-(4-Fluorophenyl)pyrazolo[1,5-a]pyridin-3-yl]-N-(4-methoxybenzyl)-2-pyridinamine]	4.2 µM
CN(C)c1cc(-c2c(-c3ccc(F)cc3)nn3ccccc23)ccn1 [Example 11, 4-[2-(4-Fluorophenyl)pyrazolo[1,5-a]pyridin-3-yl]-N,N-dimethyl-2-pyridinamine]	4.4 µM
O=C1CCCN1CCCNc1cc(-c2c(-c3ccc(F)cc3)nn3ccccc23)ccn1 [Example 39, 1-[3-({4-[2-(4-fluorophenyl)-pyrazolo[1,5-a]pyridin-3-yl]-2-pyridinyl}amino)propyl]-2-pyrrolidinone]	1.7 µM

The remaining lines, values ahead:

IC50	SMILES
2.5 µM	OCc1ccc2c(-c3ccnc(NC4CCCC4)n3)c(-c3ccc(F)cc3)nn2c1 [Example 33, [3-[2-(Cyclopentylamino)-4-pyrimidinyl]-2-(4-fluorophenyl)pyrazolo-[1,5-a]pyridin-6-yl]methanol]
3.8 µM	COc1ccc(-c2nn3ccc(Cl)cc3c2-c2ccnc(NC3CCCC3)n2)cc1 [Example 38, 4-[5-Chloro-2-(4-methoxyphenyl)pyrazolo[1,5-a]pyridin-3-yl]-N-cyclopentyl-2-pyrimidinamine]
16 µM	CCOC(=O)c1ccc2c(-c3ccnc(NC4CC4)n3)c(-c3ccc(OC)cc3)nn2c1 [Example 97, Ethyl 3-[2-(cyclopropylamino)pyrimidin-4-yl]-2-(4-methoxyphenyl)-pyrazolo[1,5-a]pyridine-6-carboxylate]
1.4 µM	Fc1ccc(-c2nn3ccc(N4CCCC4)cc3c2-c2ccnc(NC3CCCC3)n2)cc1 [Example 37, N-Cyclopentyl-4-[2-(4-fluorophenyl)-5-(1-pyrrolidinyl)pyrazolo[1,5-a]pyridin-3-yl]-2-pyrimidinamine]
1.1 µM	COCCNC(=O)c1ccc2c(-c3ccnc(NC4CC4)n3)c(-c3ccc(OC)cc3)nn2c1 [Example 98, 3-[2-(Cyclopropylamino)pyrimidin-4-yl]-N-(2-methoxyethyl)-2-(4-methoxyphenyl)pyrazolo[1,5-a]pyridine-6-carboxamide]
3.6 µM	Fc1ccc(-c2nn3ccc(N4CCOCC4)cc3c2-c2ccnc(NC3CCCC3)n2)cc1 [Example 89, N-Cyclopentyl-4-[2-(4-fluorophenyl)-5-morpholin-4-ylpyrazolo[1,5-a]pyridin-3-yl]pyrimidin-2-amine]

System: not given
Assay: not given
Conditions: not given

SMILES	melting point
OCc1ccc2c(-c3ccnc(NC4CCCC4)n3)c(-c3ccc(F)cc3)nn2c1 [Example 33, [3-[2-(Cyclopentylamino)-4-pyrimidinyl]-2-(4-fluorophenyl)pyrazolo-[1,5-a]pyridin-6-yl]methanol]	155 to 156 °C
CCOC(=O)c1ccc2c(-c3ccnc(NC4CCCC4)n3)c(-c3ccc(F)cc3)nn2c1C [Example 81, Ethyl 3-[2-(cyclopentylamino)-4-pyrimidinyl]-2-(4-fluorophenyl)-7-methylpyrazolo[1,5-a]pyridine-6-carboxylate]	155 to 156 °C
